The values below come from PMC8258795 (Computational and Structural Biotechnology Journal, 2021).

Structures are written as SMILES. pIC50, pKd: −log10 of the molar value.

For data set [1] the following is noted: cited from earlier work; for BBB Permeable: prediction confirmed or corrected by literature.
The target in data set [2] is T1, LRRK2 G2019S (Homo sapiens, UniProt Q5S007, G2019S). Briefly: KINOMEscan competition binding assay (Eurofins DiscoverX). Particulars: competition with active-site directed ligand, duplicates. As for the experimental part:
(§1) The six hit compounds from the virtual screening were ordered from Selleckchem (Houston, Texas, USA). […] Stocks of all compounds were shipped to Reaction Biology Corporation (Malvern, Pennsylvania, USA) and Eurofins DiscoverX (Fremont, California, USA) for IC50 and Kd determination, respectively. The IC50 and Kd assays were performed as service by the companies.
The compounds were tested at 11 different concentrations in duplicates with 3-fold serial dilution starting at 100 μM. Compounds were dissolved and diluted in 100% DMSO. […] Shortly, streptavidin-coated magnetic beads were treated with the biotinylated competitive ligand for 30 min at room temperature. The liganded beads were blocked with excess biotin and washed with blocking buffer (SeaBlock (Pierce), 1% BSA, 0.05% Tween 20, 1 mM DTT) to remove unbound ligand and to reduce non-specific binding. […] The kinase concentration in the eluates was measured by qPCR.
(§2) A specific challenge to our drug repositioning approach was the use of a homolog structure as template instead of a LRRK2 structure. To validate the virtual screening results, all six top candidates were tested for in vitro inhibition of LRRK2 kinase activity.

In data set [3] the target is T1, LRRK2 G2019S. Briefly: LRRK2 G2019S kinase activity inhibition, 33P-ATP P81 filter-binding (Reaction Biology). The class given is biochemical. Here is the method: as §1
Compounds were dissolved and diluted in 100% DMSO. […] Compounds were delivered into the reaction mixture. After a 20 min incubation, ^33P-ATP was added to a final concentration of 10 μM to initiate the reaction. Reactions were carried out for 2 h at room temperature. The final enzyme and substrate concentrations were 20 nM and 20 μM, respectively. Kinase activity was detected by the P81 filter-binding method. The whole procedure is also described in [40].
as §2

[4] abbreviates: peptide substrate, 10 μM ATP, duplicates.

Regarding `C[C@@H](Oc1cc(-c2cnn(C3CCNCC3)c2)cnc1N)c1c(Cl)ccc(F)c1Cl` [Crizotinib], the “BBB Permeable” value in data set [1] is “poor and No”.

The term pKd denotes the negative decadic logarithm of the Kd, by convention in mol/L. High values mean a low Kd, low ones a high Kd. A word on the pIC50: it is the IC50 on a negative log10 scale, so that one unit is a factor of ten. Take `O=C1Nc2ccc(Cl)cc2[C@@](C#CC2CC2)(C(F)(F)F)O1` [Efavirenz]: the “BBB Permeable” value in data set [1] is “supported by literature and Yes”. In data set [2], the pKd is less than 4.00. The compound further gave a pIC50 in data set [3] (setting [4]) of less than 4.00.

Turning to `O=C1Nc2ccc(I)cc2/C1=C/c1cc(Br)c(O)c(Br)c1` [GW 5074], in data set [2], the pKd is 6.10. The compound also had a pIC50 in data set [3] (setting [4]) of more than 8.29.

In the case of `C[C@H]1Oc2cc(cnc2N)-c2c(nn(C)c2C#N)CN(C)C(=O)c2ccc(F)cc21` [Lorlatinib], in data set [1] (statement in discussion), the brain penetration entry was “brain penetrant”.

`Fc1ccc([C@@H]2CCNC[C@H]2COc2ccc3c(c2)OCO3)cc1` [Paroxetine]: the “BBB Permeable” value in data set [1] is “supported by literature and Yes”. In data set [2], this compound gave a pKd of less than 4.00. Further, in data set [3] (setting [4]), the pIC50 was less than 4.00.

For the compound `CCN(CC)CCNC(=O)c1c(C)[nH]c(/C=C2\C(=O)Nc3ccc(F)cc32)c1C` [Sunitinib], the “BBB Permeable” value in data set [1] is “supported by literature and Yes”.

`CCCc1nc(C)c2c(=O)[nH]c(-c3cc(S(=O)(=O)N4CCN(CC)CC4)ccc3OCC)nn12` [Vardenafil] gave a pKd in data set [2] of less than 4.00. Also, the pIC50 in data set [3] (values in text) is 4.33.
